From ChEMBL document CHEMBL5131572, “Identification of a Potent, Selective, and Brain-Penetrant Rho Kinase Inhibitor and its Activity in a Mouse Model of Huntington's Disease” (J Med Chem, 2022) come the findings set out here.

Converted amounts (≈) assume the structure as drawn.

Series [1] can be described thus: Ratio of unbound AUC in C57BL/6 mouse brain at 10 mg/kg, po to IC50 for Inhibition of ROCK in rat A7r5 cells. It counts as organism-based. Particulars: in vivo.
Series [2] has as its target Rho-associated protein kinase 2 (Homo sapiens, UniProt O75116). Kind of series: Inhibition of recombinant N-terminal GST-tagged human ROCK2 (5 to 554 residues) expressed in baculovirus infected Sf9 cells using S6K as substrate incubated for 30 mins in presence of ATP by ADP Glo kinase assay.
Series [3] in a line: Inhibition of ROCK in rat A7R5 cells assessed as cofilin serine 3 phosphorylation incubated for 1 hr by ICW assay. Particulars: A7R5, 1 h.
Series [4] is described as follows: Kinetic solubility of the compound in pH 7.4 PBS buffer incubated for 2 hrs using orbital shaker by LC-UV mass spectrometry. It counts as physicochemical. As to conditions: read-out: Kinetic_solubility.
A short description of series [5]: Apparent permeability in MDCK-MDR1 cells at 10 uM after 1 hr by LC-MS/MS analysis. Format: ADME, cell-based, Canis lupus familiaris. As to conditions: dog.
Series [6] in a line: Metabolic stability in mouse liver microsomes assessed as intrinsic clearance at 1 uM measured upto 40 mins in presence of NADPH by LC-MS/MS analysis. Format: ADME, Microsome. As to conditions: read-out: CLH.
The target of series [7] is T1, cGMP-dependent protein kinase 1 (Homo sapiens, UniProt Q13976).
T1 sequence (Q13976 whole entry): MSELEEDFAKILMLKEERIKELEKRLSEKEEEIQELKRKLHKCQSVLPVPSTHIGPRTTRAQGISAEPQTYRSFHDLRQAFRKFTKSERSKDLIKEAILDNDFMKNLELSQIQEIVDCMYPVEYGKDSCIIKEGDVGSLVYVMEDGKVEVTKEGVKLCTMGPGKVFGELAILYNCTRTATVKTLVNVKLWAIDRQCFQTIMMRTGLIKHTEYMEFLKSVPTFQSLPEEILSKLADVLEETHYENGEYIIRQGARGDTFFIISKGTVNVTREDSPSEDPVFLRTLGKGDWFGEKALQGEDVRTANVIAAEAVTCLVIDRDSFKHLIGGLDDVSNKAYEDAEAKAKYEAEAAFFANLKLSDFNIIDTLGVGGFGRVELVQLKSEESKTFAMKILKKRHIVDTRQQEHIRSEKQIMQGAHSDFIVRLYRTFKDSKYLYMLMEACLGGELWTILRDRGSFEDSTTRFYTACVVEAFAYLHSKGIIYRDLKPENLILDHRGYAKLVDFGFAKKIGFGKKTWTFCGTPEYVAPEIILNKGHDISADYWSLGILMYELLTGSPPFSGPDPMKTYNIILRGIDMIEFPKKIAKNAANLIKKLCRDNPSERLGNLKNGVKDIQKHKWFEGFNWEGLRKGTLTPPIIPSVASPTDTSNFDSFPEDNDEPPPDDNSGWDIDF
In words: Inhibition of full length recombinant N-terminal GST-tagged human PKG expressed in baculovirus infected Sf9 insect cells using RSK as substrate preincubated for 15 mins followed by substrate addition and measured after 30 mins in presence of ATP by ADP Glo kinase assay.

The target in the next series is T2, Cytochrome P450 1A2 (Homo sapiens, UniProt P05177).
T2 sequence (P05177 whole entry): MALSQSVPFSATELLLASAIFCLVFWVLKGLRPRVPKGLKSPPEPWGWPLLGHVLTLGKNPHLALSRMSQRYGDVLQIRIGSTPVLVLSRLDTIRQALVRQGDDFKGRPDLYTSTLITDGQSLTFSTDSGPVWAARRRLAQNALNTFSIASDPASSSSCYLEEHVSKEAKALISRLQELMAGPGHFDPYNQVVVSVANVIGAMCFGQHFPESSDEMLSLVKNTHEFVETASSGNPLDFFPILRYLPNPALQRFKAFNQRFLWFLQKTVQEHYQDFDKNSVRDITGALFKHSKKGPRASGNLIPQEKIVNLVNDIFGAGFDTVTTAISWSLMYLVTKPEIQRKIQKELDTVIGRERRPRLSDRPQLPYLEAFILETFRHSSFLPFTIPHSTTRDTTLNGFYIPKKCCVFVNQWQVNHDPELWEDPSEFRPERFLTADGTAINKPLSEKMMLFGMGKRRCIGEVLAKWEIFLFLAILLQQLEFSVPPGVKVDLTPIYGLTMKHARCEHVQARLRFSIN
In words: Time dependent inhibition of CYP1A2 in pooled human liver microsomes using […] as substrate preincubated for 30 mins in presence of NADPH followed by substrate addition and measured after 10 mins by LC-MS/MS analysis. It counts as ADME, Microsome.

Series [8] is described as follows: Clearance in C57BL/6 mouse plasma at 2 mg/kg, iv. Format: ADME, organism-based.
Series [9] in a line: Hepatic extraction ratio in C57BL/6 mouse at 2 mg/kg, iv. Format: ADME, organism-based. Particulars: in vivo, read-out: ERH.
Series [10] is described as follows: Unbound AUC in C57BL/6 mouse plasma at 10 mg/kg, po by LC-MS/MS analysis. As to conditions: in vivo. Format: ADME, organism-based.
Series [11] is described as follows: Unbound AUC in C57BL/6 mouse brain at 10 mg/kg, po by LC-MS/MS analysis. Format: ADME, organism-based. As to conditions: in vivo.
Series [12] can be described thus: Oral bioavailability in C57BL/6 mouse at 10 mg/kg. It counts as ADME, organism-based. Particulars: in vivo.
The test system of another series is MDR1. In words: in vitro. As to conditions: dog, MDCK-MDR1.
For series [13], the target named is RAC-alpha serine/threonine-protein kinase (Homo sapiens, UniProt P31749). Kind of series: Inhibition of AKT (unknown origin).
The nature of series [14]: Inhibition of ROCK in rat A7R5 cells assessed as increase in AKT phosphorylation measured after 30 mins by alphaLISA Surefire multiplex assay. Format: cell-based. Particulars: A7R5, 0.5 h.
Series [15] can be described thus: Inhibition of ROCK in human PANC-1 cells assessed as decrease in MYPT1 phosphorylation at T850 residues measured after 1 hr by Western blot analysis. It counts as cell-based. Particulars: PANC-1, 1 h.
The subject of series [16] is Mus musculus. Kind of series: Antihypertensive activity in CD1 mouse assessed as decrease in mean arterial pressure at 10 to 20 mg/kg, po measured after 0.5 to 2 hrs. It counts as functional. Particulars: dose 10-20 mg/kg, time 0.5-2 hrs.
Series [17] has as its system Mus musculus. Kind of series: Antihypertensive activity in CD1 mouse assessed as decrease in systolic blood pressure at 10 to 20 mg/kg, po measured after 0.5 to 2 hrs. It counts as functional. Particulars: dose 10-20 mg/kg, time 0.5-2 hrs.
In series [18] the test system is Mus musculus. Kind of series: Antihypertensive activity in CD1 mouse assessed as decrease in diastolic blood pressure at 10 to 20 mg/kg, po measured after 0.5 to 2 hrs. It counts as functional. As to conditions: dose 10-20 mg/kg, time 0.5-2 hrs.
The target in another series is LIM domain kinase 2 (Homo sapiens, UniProt P53671). In words: Inhibition of wild-type human full length LIMK2 (M1 to P638 residues) expressed in bacterial expression system by Kinomescan method.
In series [19] the test system is Mus musculus. In words: In vivo inhibition of ROCK in po dosed HTT zQ175DN Knock-in mouse assessed as reduction in MYPT1 phosphorylation in striatum after 1 hr by MSD assay. It counts as functional, organism-based. As to conditions: dose 1-20 mg/kg, DDE = dose-dependent effect.
Series [20] relates to Mus musculus. In words: In vivo inhibition of ROCK in HTT zQ175DN Knock-in mouse assessed as reduction in MYPT1 phosphorylation in striatum at 10 mg/kg, po by MSD assay. It counts as functional, organism-based. Particulars: time 1-8 hrs, TDE = time-dependent effect.
Series [21] relates to Mus musculus. In words: Antihypertensive activity in CD1 mouse assessed as decrease in body temperature at 10 to 20 mg/kg, po measured after 0.5 to 4 hrs. It counts as functional. Particulars: dose 10-20 mg/kg, time 0.5-4 hrs.
For series [22], the system named is Mus musculus. In words: Antihypertensive activity in CD1 mouse assessed as decrease in heart rate pressure at 10 to 20 mg/kg, po measured after 0.5 to 2 hrs. As to conditions: dose 10-20 mg/kg, time 0.5-2 hrs.
Series [23] in a line: Distribution coefficient, logD of compound by chromatographic method. Format: physicochemical. Particulars: octanol/water.
Series [24] is described as follows: Lipophilicity, logP of compound. It counts as physicochemical. Particulars: octanol/water.

Rho-associated protein kinase 2, sequence (O75116 whole entry, the tested form may be a part): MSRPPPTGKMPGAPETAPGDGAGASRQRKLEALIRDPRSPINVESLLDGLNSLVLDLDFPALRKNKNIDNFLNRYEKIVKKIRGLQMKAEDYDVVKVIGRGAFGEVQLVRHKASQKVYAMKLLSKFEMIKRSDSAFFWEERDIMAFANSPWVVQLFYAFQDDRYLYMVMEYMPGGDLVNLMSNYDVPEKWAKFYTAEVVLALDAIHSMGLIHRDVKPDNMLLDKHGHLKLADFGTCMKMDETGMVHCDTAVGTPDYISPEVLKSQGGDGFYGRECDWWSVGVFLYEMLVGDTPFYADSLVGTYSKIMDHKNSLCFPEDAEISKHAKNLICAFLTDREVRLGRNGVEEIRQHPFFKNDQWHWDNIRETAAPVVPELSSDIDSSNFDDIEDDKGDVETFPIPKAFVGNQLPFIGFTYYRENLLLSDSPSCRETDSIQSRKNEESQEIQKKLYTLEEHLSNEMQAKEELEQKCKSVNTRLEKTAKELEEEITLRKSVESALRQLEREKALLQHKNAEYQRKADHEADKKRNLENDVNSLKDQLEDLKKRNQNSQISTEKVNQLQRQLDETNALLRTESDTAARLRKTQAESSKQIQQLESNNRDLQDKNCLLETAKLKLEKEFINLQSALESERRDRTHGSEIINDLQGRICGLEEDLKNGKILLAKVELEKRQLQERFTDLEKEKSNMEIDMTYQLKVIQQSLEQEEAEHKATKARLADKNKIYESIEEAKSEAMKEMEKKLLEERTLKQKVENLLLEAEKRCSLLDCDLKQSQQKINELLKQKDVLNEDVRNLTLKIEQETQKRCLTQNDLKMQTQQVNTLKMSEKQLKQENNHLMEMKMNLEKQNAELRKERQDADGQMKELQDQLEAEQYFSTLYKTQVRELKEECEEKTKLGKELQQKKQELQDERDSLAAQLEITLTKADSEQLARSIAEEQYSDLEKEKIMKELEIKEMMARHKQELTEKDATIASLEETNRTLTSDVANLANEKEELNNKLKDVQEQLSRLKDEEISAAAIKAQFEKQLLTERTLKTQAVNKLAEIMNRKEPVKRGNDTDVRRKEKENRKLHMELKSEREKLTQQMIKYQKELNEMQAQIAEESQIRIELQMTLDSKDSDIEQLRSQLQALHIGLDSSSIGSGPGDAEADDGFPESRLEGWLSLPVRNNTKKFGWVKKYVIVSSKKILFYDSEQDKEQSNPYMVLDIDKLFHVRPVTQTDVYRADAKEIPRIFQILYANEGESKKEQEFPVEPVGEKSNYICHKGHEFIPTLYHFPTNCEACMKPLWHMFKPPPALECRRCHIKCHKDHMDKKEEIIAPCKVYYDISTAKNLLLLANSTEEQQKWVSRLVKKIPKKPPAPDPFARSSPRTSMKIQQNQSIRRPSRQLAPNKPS
LIM domain kinase 2, sequence (P53671 whole entry, the tested form may be a part): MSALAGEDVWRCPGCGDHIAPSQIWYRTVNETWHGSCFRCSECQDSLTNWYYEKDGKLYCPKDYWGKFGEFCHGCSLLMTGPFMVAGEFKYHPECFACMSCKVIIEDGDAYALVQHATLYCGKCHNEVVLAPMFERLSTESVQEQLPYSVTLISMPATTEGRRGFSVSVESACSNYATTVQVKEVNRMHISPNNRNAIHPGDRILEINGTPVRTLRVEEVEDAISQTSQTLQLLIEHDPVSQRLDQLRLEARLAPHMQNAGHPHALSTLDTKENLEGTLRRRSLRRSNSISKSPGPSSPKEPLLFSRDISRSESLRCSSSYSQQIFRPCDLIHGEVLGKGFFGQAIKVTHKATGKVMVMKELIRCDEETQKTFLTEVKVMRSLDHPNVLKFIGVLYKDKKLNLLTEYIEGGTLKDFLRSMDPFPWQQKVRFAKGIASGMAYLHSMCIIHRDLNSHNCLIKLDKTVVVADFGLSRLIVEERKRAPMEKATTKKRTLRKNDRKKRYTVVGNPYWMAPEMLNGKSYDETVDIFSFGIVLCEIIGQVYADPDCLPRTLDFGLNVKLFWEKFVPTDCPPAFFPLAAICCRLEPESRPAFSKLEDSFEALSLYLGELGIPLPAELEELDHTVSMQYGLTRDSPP
RAC-alpha serine/threonine-protein kinase, sequence (P31749 whole entry): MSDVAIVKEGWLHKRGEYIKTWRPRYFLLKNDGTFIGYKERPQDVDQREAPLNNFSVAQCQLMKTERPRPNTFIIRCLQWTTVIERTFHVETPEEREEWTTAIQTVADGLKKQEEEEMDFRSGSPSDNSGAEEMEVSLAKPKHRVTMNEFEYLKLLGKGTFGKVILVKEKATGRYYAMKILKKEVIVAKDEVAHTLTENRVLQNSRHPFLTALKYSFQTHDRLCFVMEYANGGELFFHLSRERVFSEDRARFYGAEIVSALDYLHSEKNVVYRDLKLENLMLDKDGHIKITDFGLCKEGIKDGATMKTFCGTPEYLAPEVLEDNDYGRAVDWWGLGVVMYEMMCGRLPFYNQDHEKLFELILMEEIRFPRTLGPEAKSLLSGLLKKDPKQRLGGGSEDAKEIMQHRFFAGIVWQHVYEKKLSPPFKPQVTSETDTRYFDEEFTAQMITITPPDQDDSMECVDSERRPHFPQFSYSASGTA
Description for MDR1: Efflux ratio of apparent permeability across basolateral to apical side to apical to basolateral side in MDCK-MDR1 cells at 10 uM measured after 1 hr by LC-MS/MS analysis

In the case of `COc1cccc([C@@H](C)NC(=O)N2CCN(c3ccnc(F)c3)C[C@H]2C)c1`, the Ratio in series [1] is on record as 0.2. Also, the IC50 was 0.006 µM in series [2], 0.122 µM in series [3], 18.9 µM in series [7] and > 10 µM on Cytochrome P450 1A2. Further, the solubility kinetic at 2 h in series [4] turned out to be 170 µM (≈ 63.3 µg/mL). For the same molecule, in series [5], the Papp at 1 h, 10 µM is 581 nm/s. The CLint scaled at 1 µM in series [6] was 6.18 L/h/kg. In addition, the clearance in [8] is 1.7 L/h/kg. In addition, the hepatic extraction ratio in series [9] turned out to be 0.31. Besides, the fAUC was 100 nM·kg·h/mg in series [10] and 30 nM·kg·h/mg in series [11]. This molecule returned a bioavailability in series [12] of 36%. The efflux ratio at 1 h, 10 µM in the series with MDR1 amounted to 2.8.
For the molecule `COc1cccc([C@@H](C)NC(=O)c2ccc(-c3ccnc(F)c3)nc2)c1`, the IC50 in series [2] turned out to be 0.026 µM; in series [3], 0.29 µM; in series [13], 9.26 µM; in [7], 0.32 µM; in series [15], 1.87 µM. In addition, in series [14], the EC50 worked out at 3.21 µM.
For `COc1cccc([C@@H](C)NC(=O)N2CCN(c3ccncc3F)C[C@H]2C)c1`, the IC50 amounted to 0.003 µM in series [2]; 0.008 µM in [3]; 2.25 µM in series [7]; 0.014 µM in series [15]; 0.025 µM against LIM domain kinase 2. Moreover, in [14], the EC50 amounted to 0.028 µM. Besides, the Activity in the series with Mus musculus [16] is given as 61 mmHg; in the series on Mus musculus [17], 59.5 mmHg; with Mus musculus [18], 56.4 mmHg; in the series with Mus musculus [22] it was 107 bpm. Besides, the inhibition result with Mus musculus [19] was “Dde”; with Mus musculus [20], “Tde”. In addition, the T in the series on Mus musculus [21] came out at 2.5 °C.
Take `COc1cc(F)cc([C@@H](C)NC(=O)N2CCN(c3ccncc3F)C[C@H]2C)c1`: the IC50 was determined as 0.015 µM in series [3], 1.7 µM in series [7] and 1.1 µM at Cytochrome P450 1A2. Also, the solubility kinetic at 2 h in series [4] amounted to 140 µM (≈ 54.7 µg/mL). In [23], this molecule displayed a chromatographic logD of 2.4. In addition, in [24], the logP came to 2.7. Besides, the Papp at 1 h, 10 µM in series [5] was found to be 984 nm/s. The CLint scaled at 1 µM in series [6] was < 3.9 L/h/kg. The molecule also gave a clearance in series [8] of 5.1 L/h/kg. For the same molecule, the fAUC in series [10] came out at 30 nM·kg·h/mg; in [11] it was 40 nM·kg·h/mg. This molecule also came in with a bioavailability in series [12] of 78%.
